# Read-outs that look alike come from different tables or passages of the source.
# Columns and labels:
# [1] = system: antitumour activity of cisplatin; design: method as in Hausheer et al, 1998; conditions: tumour-bearing rats; given preceding cisplatin; ref Hausheer et al, 1998; cited from earlier work
# [2] = system: antitumour activity of cisplatin; design: method as in Boven et al, 2002; conditions: tumour-bearing nude mice; given preceding cisplatin; ref Boven et al, 2002; cited from earlier work
# [3] = design: method as in Boven et al, 2002; conditions: nude mice; after BNP7787 administration; ref Boven et al, 2002; cited from earlier work
# [4] = Pharmacokinetics and tissue distribution of BNP7787 and mesna after i.v. bolus of BNP7787 or mesna in WARD tumour-bearing rats; assay type: in vivo, Fischer rats; conditions: for AUC, fold lower after BNP7787 than after mesna administration / AUC after BNP7787 administration compared with after mesna administration: each 1000 mg kg^−1 i.v.; for Kp: 1000 mg/kg
# From the text: The protocol was approved by the ethics committee for animal experiments of the Vrije Universiteit medical center in Amsterdam, The Netherlands. This committee strictly adheres to the standards required by the UKCCCR for the welfare of animals in neoplasia ([Workman et al, 1998]). Female Fischer rats (144–171 g) were obtained from Harlan (Indianapolis, USA) and were implanted subcutaneously in both flanks with fragments (2–3 mm diameter) of the WARD colorectal tumour ([Cao et al, 1994]). The pharmacokinetic study started at the time the tumours had reached a mean size of approximately 600 mm^3 (range 250–900 mm^3).
# Tumour-bearing rats were treated with 1000 mg kg^−1 BNP7787 i.v. or 1000 mg kg^−1 mesna i.v. injected in the tail vein. Approximately 5 min before sample collection, the rats were anaesthetised by i.p. injection with 0.1 ml of a mixture of 75 mg ml^−1 ketamine plus 5 mg ml^−1 xylazine per 100 g weight. Blood was obtained by heart puncture at 0, 5, 15, 30, 45, 60, 90 and 150 min after i.v. administration of BNP7787 or mesna. Thereafter, the kidney, liver and tumour were removed by surgical dissection. In addition, at time points 0 and 30 min, skeletal muscle attached to the thighbone was also collected. At each time point three rats were killed.
# Immediately after collection, the blood samples, which were collected in cooled EDTA-containing tubes (potassium-EDTA 1.6 mg EDTA ml^−1 blood; Sarstedt, Germany), were centrifuged at 4°C for 10 min at 4000 g. Plasma was separated and immediately deproteinised by adding one volume of sulphuric acid (0.33 M) and one volume of sodium hexametaphosphate (5 g/100 ml). After vortexing and centrifugation for 2 min at 12 000 g, the supernatant was stored in aliquots at −80°C until analysis. One volume of RBCs was washed with 1 volume of cold phosphate-buffered saline (PBS) of pH 7.4 containing sodium phosphate (10 mM) and NaCl (140 mM; Hospital Pharmacy, VUmc, Amsterdam, The Netherlands). This mixture was centrifuged for 2 min, 12 000 g at 4°C. After removing the PBS, the remaining RBCs were stored in liquid nitrogen until further processing.
# The kidney, liver, tumour and skeletal muscle were washed with cold PBS before storage in liquid nitrogen. After collection of all the samples at the different time points, tissue homogenates of kidney, liver, tumour and skeletal muscle were prepared by pulverisation using a Braun Micro-dismembrator (Salm and Kipp; Breukelen, The Netherlands) according to the method described by [Peters et al (1986)]. An appropriate volume of aqueous EDTA (1 g l^−1) was added to the RBC and tissue homogenates to obtain a concentration of 100 mg tissue (wet weight) per ml. After sonification (10 min) and vortexing (10 min), the samples were subsequently deproteinised by adding 1 volume of cold sulphuric acid (0.33 M) and 1 volume of cold sodium hexametaphosphate (5 g/100 ml). After thorough vortexing and centrifugation (2 min at 8500 g at 4°C), the supernatants were stored in aliquots at −80° until analysis.
# BNP7787 and mesna concentrations were determined selectively in one run using micro-HPLC with a dual electrochemical detector (dual ECD) ([Verschraagen et al, 2003b]). Briefly, citrate-NaOH buffer (40 μl of a mixture of 1 ml 5.0 M sodium hydroxide and 4 ml 0.5 M tri-sodium citrate buffer, pH 3.0) was added to 200 μl of deproteinised plasma, RBC or tissue sample, and the sample was injected into the micro-HPLC system which consisted of a Phenomenex C18 guard column (10 μm, 4 × 2.0 mm) and a Phenomenex Prodigy C18 ODS-3 column (5 μm, 100 × 1.0 mm; Bester, Amstelveen, The Netherlands).
smiles,measurement,setting,value
"O=S(=O)(O)CCS [mesna, sodium 2-mercapto ethane sulphonate]",effect on antitumour activity of cisplatin,[1],can reduce the number of complete and partial tumour remissions
same,effect on antitumour activity of cisplatin,[2],reduce the specific growth delay
same,AUC of mesna in plasma as % of the AUC of BNP7787,[3],approximately 24%
same,mean concentration (±s.d.) in skeletal muscle,[4]; 30 min after 1000 mg kg^−1 BNP7787 i.v.,355.1 ± 113.0 nmol/g
same,mean concentration (±s.d.) in skeletal muscle,[4]; 30 min after 1000 mg kg^−1 mesna i.v.,665.1 ± 209.1 nmol/g
same,"AUC, fold lower after BNP7787 than after mesna administration","[4]; RBC, P<0.01",6.2 fold
same,time detectable,"[4]; after 1000 mg kg^−1 BNP7787 i.v., RBC",up to 90 min
same,time detectable,"[4]; after 1000 mg kg^−1 BNP7787 i.v., kidney",at least 150 min
same,time detectable,"[4]; after 1000 mg kg^−1 BNP7787 i.v., liver",up to 90 min
same,time detectable,"[4]; after 1000 mg kg^−1 BNP7787 i.v., plasma",up to 90 min
same,time detectable,"[4]; after 1000 mg kg^−1 BNP7787 i.v., tumour",at least 150 min
same,time detectable,"[4]; after 1000 mg kg^−1 mesna i.v., RBC",at least 150 min
same,time detectable,"[4]; after 1000 mg kg^−1 mesna i.v., kidney",at least 150 min
same,time detectable,"[4]; after 1000 mg kg^−1 mesna i.v., liver",at least 150 min
same,time detectable,"[4]; after 1000 mg kg^−1 mesna i.v., plasma",at least 150 min
same,AUC of mesna relative to AUC of BNP7787,"[4]; after 1000 mg kg^−1 mesna i.v., plasma and all tissues sampled",at least seven-fold higher
same,time detectable,"[4]; after 1000 mg kg^−1 mesna i.v., tumour",at least 150 min
same,"AUC^5−60 in plasma, fold higher in rats than in nude mice","[4]; after equivalent dose of 1000 mg kg^−1 BNP7787, mouse data ref Boven et al, 2002",approximately 5.2 fold
same,AUC of mesna in tumour relative to AUC of mesna in plasma,[4]; after mesna administration,at least three-fold lower
same,"AUC, fold lower than the corresponding value in kidney","[4]; all other sampled tissue compartments, after either BNP7787 or mesna",at least 5.5 fold
same,Kp,"[4]; female, Fischer, rat, all tissue compartments other than kidney / plasma, iv, after 1000 mg kg^−1 mesna i.v., all tissue compartments other than kidney, read-out: tissue–plasma AUC ratio",< 0.3
same,Tmax,"[4]; female, Fischer, rat, iv, after 1000 mg kg^−1 BNP7787 i.v., liver, read-out: time of maximal concentration in liver (converted)",5 min
same,Kp,"[4]; female, Fischer, rat, kidney / plasma, iv, after 1000 mg kg^−1 BNP7787 i.v., read-out: kidney–plasma AUC ratio",4.5
same,Kp,"[4]; female, Fischer, rat, kidney / plasma, iv, after 1000 mg kg^−1 mesna i.v., read-out: kidney–plasma AUC ratio",1.7
same,Kp,"[4]; female, Fischer, rat, liver / plasma, iv, after 1000 mg kg^−1 BNP7787 i.v., read-out: liver–plasma AUC ratio",0.5
same,Kp,"[4]; female, Fischer, rat, red blood cells / plasma, iv, after 1000 mg kg^−1 BNP7787 i.v., read-out: RBC–plasma AUC ratio",0.1
same,Kp,"[4]; female, Fischer, rat, tumour / plasma, iv, after 1000 mg kg^−1 BNP7787 i.v., read-out: tumour–plasma AUC ratio",0.7
same,"AUC, fold lower after BNP7787 than after mesna administration","[4]; kidney, P<0.01",1.9 fold
same,AUC after BNP7787 administration compared with after mesna administration,[4]; liver,similar
same,AUC after BNP7787 administration compared with after mesna administration,"[4]; plasma, P<0.01",five-fold lower
same,AUC of mesna in plasma as % of the AUC of BNP7787,"[4]; rats, after BNP7787 administration",approximately 50%
same,"AUC, fold lower after BNP7787 than after mesna administration","[4]; tumour, not statistically significant",2.1 fold
